# According to US20040248953A1, “3-Arylsulfanyl and 3-heteroarylsulfanyl substituted benzo[b]thiophenes as therapeutic agents” (priority 2003, published 2004):
# Biological target: T1, PI3Kγ (Homo sapiens, UniProt P48736)
# T1 construct: HA; made in house; host or cells: Spodoptera frugiperda (Sf9) cells, baculovirus coinfection
# Assay: PI3Kγ in vitro kinase assay (32P-ATP, PIP2 lipid micelles, filter plate)
# Assay type: biochemical
# Details: purified recombinant p101/p110γ protein with G protein β1/γ2 subunits; 20 μM ATP; 25 μM PIP2; 20 minutes at room temperature
# Protocol: Spodtera frugiperda cells, grown in ESF921 media, were coinfected with baculovirus expressing a glu-tagged p101 and baculovirus expressing an HA-tagged p110γ, at a 3:1 ratio of p101 baculovirus to p110γ baculovirus. Sf9 cells were grown to 1×10^7 total cells/mL in 10 L bioreactors and harvested 48-72 hours post infection. Samples of infected cells were then tested for expression of p101/p110γ PI3 kinase by immunoprecipitation and Western Blot analysis methods (see below). To purify PI3Kγ, 4 volumes of room temperature hypotonic lysis buffer (1 mM MgCl2, 1 mM DTT, 5 mM EGTA, 1 mM Pefabloc, 0.5 μM aprotinin, 5 μM leupeptin, 2 μM pepstatin, 5 μM E64, pH 8) per gram of cell paste, was poured onto frozen cell pellets with stirring, then lysed in a nitrogen “bomb” at 400 psi (599HC […], Parr Instrument Co, Moline, Ill.). NaCl was added to 150 mM, and sodium cholate was added to 1% and mixed for another 45 minutes. The lysates were clarified by centrifugation for 25 minutes at 14,000 rpm. The lysates were then loaded over anti-glu-linked Protein-G Sepaharose beads (Covance Research Products, Richmond, Calif.) using 20 mL resin/50 g cell paste. The column was washed with 15 volumes of wash buffer (1 mM DTT, 0.2 mM EGTA, 1 mM Pefabloc, 0.5 μM aprotinin, 5 μM leupeptin, 2 μM pepstatin, 5 μM E64, 150 mM NaCl, 1% sodium cholate, pH 8). PI3Kγ was eluted with 6 column volumes of wash buffer that contain 100 μg/mL of a peptide that competes for binding of the glu tag. The column fractions with the eluted protein (determined by taking OD280 readings) were collected and dialyzed in 0.2 mM EGTA, 1 mM DTT, 1 mM Pefabloc, 5 μM leupeptin, 0.5% sodium cholate, 150 mM NaCl, and 50% glycerol, pH 8. The fractions were stored at -80° C. until further use. Spodtera frugiperda cells were coinfected with baculovirus expressing a glu-tagged G protein β1 and baculovirus expressing a […], at a 1:1 ratio of glu-tagged G protein β1 baculovirus to G protein β2 baculovirus. Sf9 cells are grown in 10 L bioreactors and harvested 48-72 hours post infection. Samples of infected cells were tested for G protein β1/β2 expression by Western Blot analysis, as described below. Cell lysates were homogenized and loaded onto a column of glu-tagged beads as in Biological Example 1 and competed off the column with a glu peptide and processed as described in Biological Example 1. The inhibitory properties of the compounds in Table 1 were assayed in an in vitro PI3K assay. In a 96-well polypropylene plate, each well was spotted with […] of 50 times the desired final concentration of compound in DMSO. Purified recombinant p101/p110γ protein (0.03 μg; 2.7 nM) and G protein β1/γ2 subunits (0.09 μg; 57.7 nM) for each reaction was combined in the assay buffer (30 mM HEPES, 100 mM NaCl, 1 mM EGTA, and 1 mM DTT). ATP and [γ-^32P-ATP] (0.09 μCi) were added to this mixture so that the final ATP concentration in the reaction was 20 μM. Lipid micelles were formed by sonicating phosphatidylinositol4,5-diphosphate (PIP2), phosphatidylethanolamine (PE), and Na-cholate in the assay buffer for 10 minutes, adding MgCl2 and incubating on ice for 20 minutes, for final concentrations of 25 μM PIP2, 300 μM PE, 0.02% Na-cholate, and 10 mM MgCl2 in the reaction. The reactions were started by adding equal volumes lipid and enzyme mixture in a total volume of 50 μL, allowed to run for 20 minutes at room temperature, and stopped with 100 μL 75 mM H3PO4. The lipid product was transferred to a glass fiber filter plate and washed with 75 mM H3PO4 several times. The presence of radioactive lipid product (PIP3) was measured by adding Wallac Optiphase mix to each well and counting in a Wallac 1450 Trilux plate reader (PerkinElmer Life Sciences Inc., Boston, Mass. 02118). The IC50 for each compound tested is reported in μM in Table 1: […]
# T1 sequence (P48736 whole entry, species assumed): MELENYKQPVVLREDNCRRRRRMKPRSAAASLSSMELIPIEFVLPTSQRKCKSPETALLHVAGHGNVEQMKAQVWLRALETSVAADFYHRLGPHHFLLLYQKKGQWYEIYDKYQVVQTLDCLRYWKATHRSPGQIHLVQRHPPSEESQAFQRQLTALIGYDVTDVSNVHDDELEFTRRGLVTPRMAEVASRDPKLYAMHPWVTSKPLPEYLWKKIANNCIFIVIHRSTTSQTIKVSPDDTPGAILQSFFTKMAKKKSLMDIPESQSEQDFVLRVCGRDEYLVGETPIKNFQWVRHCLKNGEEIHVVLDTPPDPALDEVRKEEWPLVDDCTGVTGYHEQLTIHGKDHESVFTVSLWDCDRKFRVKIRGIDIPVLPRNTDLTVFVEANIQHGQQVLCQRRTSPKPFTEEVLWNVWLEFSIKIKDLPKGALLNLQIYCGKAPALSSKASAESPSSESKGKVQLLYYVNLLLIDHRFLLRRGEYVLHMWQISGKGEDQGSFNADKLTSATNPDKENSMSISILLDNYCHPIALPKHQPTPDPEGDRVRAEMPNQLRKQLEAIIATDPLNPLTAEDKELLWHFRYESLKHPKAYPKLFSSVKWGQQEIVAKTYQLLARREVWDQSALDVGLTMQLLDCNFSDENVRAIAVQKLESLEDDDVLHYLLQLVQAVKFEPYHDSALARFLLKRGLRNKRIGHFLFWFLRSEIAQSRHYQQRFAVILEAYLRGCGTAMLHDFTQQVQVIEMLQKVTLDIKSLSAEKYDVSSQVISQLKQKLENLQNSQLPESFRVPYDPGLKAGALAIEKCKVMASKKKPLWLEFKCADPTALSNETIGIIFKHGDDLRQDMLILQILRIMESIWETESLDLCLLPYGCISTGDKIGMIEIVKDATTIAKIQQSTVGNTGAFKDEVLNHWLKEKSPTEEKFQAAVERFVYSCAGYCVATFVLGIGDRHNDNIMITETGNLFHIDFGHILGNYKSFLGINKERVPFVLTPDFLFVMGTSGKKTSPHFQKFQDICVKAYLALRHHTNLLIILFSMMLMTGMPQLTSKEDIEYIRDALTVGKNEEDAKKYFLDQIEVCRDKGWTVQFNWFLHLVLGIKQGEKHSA
# T1 sequence (Q8WYR1 whole entry partner, species assumed): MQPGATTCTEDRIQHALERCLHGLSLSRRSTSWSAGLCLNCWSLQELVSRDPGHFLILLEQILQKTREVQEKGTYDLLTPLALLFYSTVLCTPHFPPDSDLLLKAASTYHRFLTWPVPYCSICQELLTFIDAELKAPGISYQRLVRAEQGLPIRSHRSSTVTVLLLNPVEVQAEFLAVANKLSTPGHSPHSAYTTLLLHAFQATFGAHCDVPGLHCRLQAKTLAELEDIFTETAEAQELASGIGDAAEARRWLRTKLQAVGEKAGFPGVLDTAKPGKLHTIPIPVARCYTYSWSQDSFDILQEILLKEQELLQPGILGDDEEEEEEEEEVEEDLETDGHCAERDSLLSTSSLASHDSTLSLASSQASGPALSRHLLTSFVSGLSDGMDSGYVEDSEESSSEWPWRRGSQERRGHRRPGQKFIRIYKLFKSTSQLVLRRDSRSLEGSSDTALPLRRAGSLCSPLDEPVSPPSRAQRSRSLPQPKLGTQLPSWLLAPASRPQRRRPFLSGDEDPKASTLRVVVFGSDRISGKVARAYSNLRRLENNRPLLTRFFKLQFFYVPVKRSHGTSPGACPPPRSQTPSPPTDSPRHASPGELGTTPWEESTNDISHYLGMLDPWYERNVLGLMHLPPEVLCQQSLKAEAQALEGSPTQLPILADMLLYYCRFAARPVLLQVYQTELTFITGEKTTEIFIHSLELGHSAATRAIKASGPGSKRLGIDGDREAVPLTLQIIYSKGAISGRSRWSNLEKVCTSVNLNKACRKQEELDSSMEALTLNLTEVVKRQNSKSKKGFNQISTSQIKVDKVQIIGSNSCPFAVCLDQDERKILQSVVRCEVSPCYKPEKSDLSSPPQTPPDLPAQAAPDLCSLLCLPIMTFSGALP
row,SMILES,IC50
1,"COc1cc2sc(C(=O)Nc3nnn[nH]3)c(Sc3ccc(CC(=O)O)cc3)c2cc1OC [Example 61, {4-[5,6-Dimethoxy-2-(1H-tetrazol-5-ylcarbamoyl)-benzo[b]thiophen-3-ylsulfanyl]-phenyl}-acetic acid]",2610 nM
2,"COc1cc2sc(C(=O)Nc3nnn[nH]3)c(Sc3ccc(CCC(=O)O)cc3)c2cc1OC [Example 62, 3-{4-[5,6-Dimethoxy-2-(1H-tetrazol-5-ylcarbamoyl)-benzo[b]thiophen-3-ylsulfanyl]-phenyl}-propionic acid]",2670 nM
3,"CCOc1ccc2sc(C(=O)Nc3nnn[nH]3)c(Sc3ccc(CC(=O)O)cc3)c2c1 [Example 63, {4-[5-Ethoxy-2-(1H-tetrazol-5-ylcarbamoyl)-benzo[b]thiophen-3-ylsulfanyl]-phenyl}-acetic acid]",2710 nM
4,"CCOc1ccc2sc(C(=O)Nc3nnn[nH]3)c(Sc3ccc(CCC(=O)O)cc3)c2c1 [Example 64, 3-{4-[5-Ethoxy-2-(1H-tetrazol-5-ylcarbamoyl)-benzo[b]thiophen-3-ylsulfanyl]-phenyl}-propionic acid]",3620 nM

# Stronger by IC50, values ahead:
row,IC50,SMILES
1,575 nM,"COc1cc2c(Sc3ccc(CCC(=O)O)cc3)c(C(=O)Nc3nnn[nH]3)sc2cc1C [Example 57, 3-{4-[5-Methoxy-6-methyl-2-(1H-tetrazol-5-ylcarbamoyl)-benzo[b]thiophen-3-ylsulfanyl]-phenyl}-propionic acid]"
2,1340 nM,"COc1cc2sc(C(=O)Nc3nnn[nH]3)c(Sc3ccc(C(=O)O)cc3)c2cc1C [Example 58, 4-[6-Methoxy-5-methyl-2-(1H-tetrazol-5-ylcarbamoyl)-benzo[b]thiophen-3-ylsulfanyl]-benzoic acid]"
3,1320 nM,"COc1cc2sc(C(=O)Nc3nnn[nH]3)c(Sc3ccc(CC(=O)O)cc3)c2cc1C [Example 59, {4-[6-Methoxy-5-methyl-2-(1H-tetrazol-5-ylcarbamoyl)-benzo[b]thiophen-3-ylsulfanyl]-phenyl}-acetic acid]"
4,495 nM,"COc1cc2sc(C(=O)Nc3nnn[nH]3)c(SCc3ccc(C(=O)O)cc3)c2cc1C [Example 60, 4-[6-Methoxy-5-methyl-2-(1H-tetrazol-5-ylcarbamoyl)-benzo[b]thiophen-3-ylsulfanylmethyl]-benzoic acid]"
5,315 nM,"COCc1cc2sc(C(=O)Nc3nnn[nH]3)c(Sc3ccccc3)c2cc1OC [Example 65, 5-Methoxy-6-methoxymethyl-3-phenylsulfanyl-benzo[b]thiophene-2-carboxylic acid(1H-tetrazol-5-yl)-amide]"
6,1170 nM,"COc1cc2sc(C(=O)Nc3nn[nH]n3)c(SCc3ccc(C#N)cc3)c2cc1OC [Example 66, 3-(4-Cyano-benzylsulfanyl)-5,6-dimethoxy-benzo[b]thiophene-2-carboxylic acid(2H-tetrazol-5-yl)-amide]"
